Measured values from patent US6610502B1, “Compound 2-amino-3-[2-(α-mannopyranosyl)indol-3-yl]propionic acid, process for preparing the same, and method for inspecting function of living body with the novel compound” (Kyowa Medex Co., Ltd., priority 1997, dated 2003).
Values joined by “and” are separate entries in the source; they are usually repeats but may differ in a detail not shown here. Identical values can stand only once.

Experiments:
[1] = tested on: monoclonal antibody specifically reactive with 2-amino-3-[2-(α-mannopyranosyl)indole-3-yl]propionic acid; assay: Confirming the specificity of the monoclonal antibody (competitive enzyme immunoassay, absorbance at 660 nm); format: binding, mouse; details: test samples at concentrations not more than 100 μg/ml; plate coated with BSA conjugate
Method: First, 50 μl of 2-amino-3-[2-(α-D-mannopyranosyl)indole-3-yl]propionic acid-BSA conjugate solution (20 μg/ml, 0.1M carbonate buffer, pH9.5) was dispensed into a 96-well microtiter plate (available from NUNC) and left to stand at 4° C. overnight. After washing the plate with PBS (×3), 250 μl of 1% BSA/PBS solution was dispensed into the plate and left to stand at room temperature for 1 hour. Then, the plate was washed with PBS (×3) to be used as a reaction plate. Next, 50 μl of 0.1M phosphate buffer (pH 7.4) containing varied concentrations of test sample/0.1% BSA was dispensed into the reaction plate into which 50 μl of the monoclonal antibody prepared in e. Purifying the antibodies above (0.1M phosphate buffer containing l10 ng/ml 0.1% BSA, pH7.4) was added while stirring. The mixture was allowed to react at room temperature for 3 hours. After the reaction was completed, the plate was washed with PBS containing 0.05% Tween 20 (5×), and then 50 μl of POD labeled-anti-mouse immunoglobulins-rabbit IgG (DAKO) was added to the plate for reaction at room temperature for 1 hour. […] Finally, 50 μl of reaction stopper (ethyldiethyldithiocarbamate) was added to the plate of which absorbance was then determined at 660 nm by a microplate reader.

[2] = GFR assay, comparative example: creatinine in the same samples by enzymatic assay kit, clearance (Example 8); format: in vivo, human
[3] = Assay of excreted amount in urine, comparative example: creatinine by enzymatic assay kit (Example 9); format: in vivo, human; details: healthy persons

creatinine in serum ([2]; Average of 18 subjects) [mg/dL] | creatinine in urine ([2]; Average of 18 subjects) [mg/dL] | excreted amount in urine, average ([3]; female, age 0-10) [mg/day] | excreted amount in urine, average ([3]; female, age 0-90) [mg/day] | excreted amount in urine, average ([3]; female, age 10-30) [mg/day] | excreted amount in urine, average ([3]; female, age 30-50) [mg/day] | excreted amount in urine, average ([3]; female, age 50-70) [mg/day] | excreted amount in urine, average ([3]; female, age 70-90) [mg/day] | excreted amount in urine, average ([3]; male, age 0-10) [mg/day] | excreted amount in urine, average ([3]; male, age 0-90) [mg/day] | excreted amount in urine, average ([3]; male, age 10-30) [mg/day] | excreted amount in urine, average ([3]; male, age 50-70) [mg/day] | excreted amount in urine, average ([3]; male, age 70-90) [mg/day] | Compound | decrease in the absorbance (reaction with the antibody) [1] | creatinine in serum ([2]; individual subjects 1-18, patients with non-renal disease) | creatinine in urine ([2]; individual subjects 1-18, urine stored for 24 hours)
 |  |  |  |  |  |  |  |  |  |  |  |  | O=C[C@@H](O)[C@@H](O)[C@H](O)[C@H](O)CO (racemic) [DL-mannose] | no decrease |  | 
 |  |  |  |  |  |  |  |  |  |  |  |  | N[C@@H](Cc1c[nH]c2ccccc12)C(=O)O [L-tryptophan] | no decrease |  | 
0.65 | 72.12 | 245 | 559 | 609 | 742 | 684 | 515 | 387 | 833 | 1066 | 893 | 599 | CN1CC(=O)NC1=N [creatinine] |  | 0.61 mg/dl and 0.80 mg/dl (3×) and 0.50 mg/dl and 0.40 mg/dl (3×) and 0.70 mg/dl (4×) and 0.56 mg/dl and 0.72 mg/dl and 0.63 mg/dl and 0.64 mg/dl and 0.71 mg/dl and 0.84 mg/dl | 50.1 mg/dL and 48.9 mg/dL and 21.2 mg/dL and 51.9 mg/dL and 30.5 mg/dL and 70.2 mg/dL and 32.0 mg/dL and 74.1 mg/dL and 48.2 mg/dL and 138.8 mg/dL and 46.5 mg/dL and 100.2 mg/dL and 63.5 mg/dL and 142.0 mg/dL and 88.0 mg/dL and 69.9 mg/dL and 183.1 mg/dL and 39.0 mg/dL
